Data: PMC12007089, “Applying Isothermal Titration Calorimetry and Saturation Transfer Difference-NMR to Study the Mode of Interaction of Flavan-3-ols with α-Amylase to Understand Their Impact on Starch Hydrolysis” (Journal of Agricultural and Food Chemistry, 2025)
Read-outs that look alike come from different tables or passages of the source.

Key:
[1] = target: T1, porcine pancreatic α-amylase (Sus scrofa, UniProt P00690); assay: Continuous α-amylase activity assay (starch hydrolysis) by ITC; format: biochemical; details: for IC50: calculated according to the Cheng–Prussoff equation (eq 8) for a 1 M substrate
T1 sequence (P00690 16-511): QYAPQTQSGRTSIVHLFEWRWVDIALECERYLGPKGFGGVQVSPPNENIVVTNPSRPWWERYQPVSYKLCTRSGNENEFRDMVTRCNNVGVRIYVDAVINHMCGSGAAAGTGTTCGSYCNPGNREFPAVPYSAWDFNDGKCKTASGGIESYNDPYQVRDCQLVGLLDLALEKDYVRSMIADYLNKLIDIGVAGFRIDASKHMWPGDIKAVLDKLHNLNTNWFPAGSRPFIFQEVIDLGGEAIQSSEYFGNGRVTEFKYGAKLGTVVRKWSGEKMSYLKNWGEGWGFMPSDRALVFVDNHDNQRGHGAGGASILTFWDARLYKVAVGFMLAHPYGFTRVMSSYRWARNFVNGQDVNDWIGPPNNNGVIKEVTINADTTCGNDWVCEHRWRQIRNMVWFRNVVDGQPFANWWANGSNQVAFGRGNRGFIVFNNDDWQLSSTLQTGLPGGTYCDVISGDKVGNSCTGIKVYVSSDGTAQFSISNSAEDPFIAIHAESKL
Method: Without rebuffering, α-amylase was diluted each day with 0.1 M phosphate buffer/0.04 M NaCl to a final dilution of 1:1000 and stored at 4 °C. […] The starch solution was prepared daily, according to the protocol recommended by Brodkorb et al. with some modifications.[37],[38]
The starch suspension in 0.1 M phosphate buffer/0.04 M NaCl was heated for 5 min under vigorous stirring. After cooling to room temperature, the solution was diluted to a final mass concentration of 40.5 g/L (equivalent to 250 mM based on the molecular weight of the glucose monomers). The concentration of starch is typically expressed as a percentage by weight (%, w/v) due to the inherent polydispersity of the molecule, which is influenced by the source of the natural starch, the manufacturing process, and the preparation of the sample.[28],[39] However, the calculation of inhibition constants requires the use of molarities.
Control experiments were performed with 12 nM α-amylase in 0.1 M phosphate buffer/0.04 M NaCl placed in the sample cell at 310 K, and various volumes (1–10 μL) of starch solution were recurrently injected up to three times with an injection interval of 1600 s. It was elucidated that the optimal volume for reaching the maximal turnover velocity (vmax) was 5 μL. Prior to measurement, α-amylase was incubated with the flavan-3-ols for 60 min at 277 K to ensure that adsorption equilibrium has been reached. This was compulsory as the time required for the ITC system to reach equilibrium and to start measurement varied considerably (10–25 min). To confirm α-amylase stability, controls without an inhibitor were performed at the beginning and the end of each day.
The release of heat during the conversion of starch was monitored, and calculations were performed using Microsoft Excel software. The detected thermal power is directly proportional to the enzymatic rate (v0) (eq 1 and 2).[40],[41] [drawing 1] 1 [drawing 2] 2
The heat rate (dQ/dt) is obtained as a function of time (t) and provides information about the conversion rate (ν). The reaction enthalpy (ΔRHapp) is calculated by integrating the heat peak over its entire extent and dividing the result by the number of substrate molecules converted by the enzyme (eq 3). The substrate concentration at time t ([S]t) is calculated according to eq 4. [drawing 3] 3 [drawing 4] 4
The Michaelis–Menten constant (Km) is defined as the substrate concentration at the time (t0.5) when the reaction rate reaches half-maximum (vmax) (eq 5). [drawing 5] 5
Thus, the thermogram provides all information to calculate inhibition constants. While competitive inhibition (Kic, eq 6) is based on the formation of an enzyme–inhibitor complex (EI), the uncompetitive inhibition (Kiu, eq 7) refers to the binding of a ternary enzyme–substrate–inhibitor complex (ESI). [drawing 6] 6 [drawing 7] 7
The maximal conversion rate vmax and the Michaelis–Menten constant Km are calculated from the control experiments in the absence of an inhibitor. In the presence of an inhibitor [I], the apparent values of [drawing 8] and [drawing 9] have been determined.
The inhibitor concentration that is required to reduce the conversion rate to 50% (IC50) depends on the substrate concentration [S] and is calculated according to the Cheng–Prussoff equation (eq 8).[42] [drawing 10] 8

[2] = Stability of ligands in 0.1 M PBS (UV/Vis concentration); format: physicochemical; details: for conc.: storage 3,5 h (EC), 22 h (CAT), 15 h (PC B1, PC B2, PC C1); for difference rt and 277 K: same storage times
Method: Flavan-3-ols were dissolved in 0.1 M phosphate buffer containing 0.04 M NaCl at pH 7. Final concentrations were determined by UV/Vis spectroscopy at 298 K (quartz glass cuvette, light path 10 mm, Hellma Analytics, SPECTROstar Nano, BMG Labtech) using the following absorption coefficients ε at 280 nm: CAT, 3340 [L/mol cm]; EC, 3470 [L/mol cm]; PC B1, 6800 [L/mol cm]; […] PC C1, 10,000 [L/mol cm] according to Kaeswurm et al.[33] All ligand solutions were stored at 253 K. The data analysis for the interaction studies was conducted using software NanoAnalyze, with manual integration of the peaks. To correct the data for noninteraction-related heats, the mean heat released during the final three injections was subtracted as a constant blank. This procedure is an effective estimation strategy that minimizes errors during the fitting process, provided that the protein is fully saturated.[35] The data were fitted using the “independent” model. To prevent overparametrization, n was set to 1, while Ka and ΔH were maintained as variables, as recommended for low-affinity binding.[35],[36] The stability of the ligand at room temperature was ensured by monitoring the concentrations prior to and following the experiment (S5).

[3] = 100 μM flavan-3-ol, 310 K, initial injection, control 727 ± 103
[4] = 100 µM flavan-3-ol, inj. 2, read-out: Kic
[5] = 100 µM flavan-3-ol, inj. 2, read-out: Kiu
[6] = 100 µM flavan-3-ol, inj. 3, read-out: Kic
[7] = 100 µM flavan-3-ol, inj. 3, read-out: Kiu
[8] = PC C1 concentrations of ∼105 μM, 310 K
[9] = relative to control, 100 μM flavan-3-ol, 12 nM α-amylase, starch, 310 K, initial injection (inj. 1)
[10] = relative to control, 100 μM flavan-3-ol, 310 K, initial injection
[11] = uncompetitive inhibition constant, 100 μM flavan-3-ol, 310 K, initial injection (inj. 1), read-out: Kiu
[12] = competitive inhibition constant, 100 μM flavan-3-ol, 310 K, initial injection (inj. 1), read-out: Kic

| α(Kic/Kiu) ([1]; 100 μM flavan-3-ol, 310 K) | ΔRHapp [1, 3] | vmax ([1]; 100 µM flavan-3-ol, inj. 2) | Ki [1, 4] | Ki [1, 5] | vmax ([1]; 100 µM flavan-3-ol, inj. 3) | Ki [1, 6] | Ki [1, 7] | vmax [1, 9] | (dQ/dt)max [1, 10] | conc. ([2]; 277 K) | conc. ([2]; room temperature (rt)) | difference rt and 277 K [2] | Ki [1, 12] | SMILES | reduction in α-amylase activity ([1]; 100 μM PC C1) | (dQ/dt)max [1, 8] | ΔRHapp [1, 8] | vmax ([1]; PC C1 concentrations of ∼105 μM, 310 K, value printed in brackets) | IC50 [1] | Ki [1, 11] |
| --- | --- | --- | --- | --- | --- | --- | --- | --- | --- | --- | --- | --- | --- | --- | --- | --- | --- | --- | --- | --- |
| 1.0 ± 0.1 | 0.205 ± 0.00789 kcal/mol | 62±6% | 188 ± 34 µM | 195 ± 57 µM | 61±7% | 202 ± 73 µM | 165 ± 49 µM | 62 ± 4% | 56 ± 4% | 4,46 ± 0,24 mM | 4,56 ± 0,21 mM | 0,11 mM | – | Oc1cc(O)c2c(c1)O[C@H](c1ccc(O)c(O)c1)[C@H](O)[C@H]2c1c(O)cc(O)c2c1O[C@H](c1ccc(O)c(O)c1)[C@H](O)C2 [PC B2, procyanidin B2] | – | – | – | – | – | – |
| 0.8 ± 0.4 | 0.162 ± 0.0335 kcal/mol | 78±5% | 447 ± 151 µM | 403 ± 134 µM | 79±2% | 458 ± 152 µM | 399 ± 54 µM | 79 ± 6% | 80 ± 13% | 3,94 ± 0,24 mM | 4,02 ± 0,21 mM | 0,08 mM | 356 ± 209 µM | Oc1cc(O)c2c(c1)O[C@H](c1ccc(O)c(O)c1)[C@@H](O)C2 [CAT, (+)-Catechin] | – | – | – | – | 431 ± 217 µM | 431 ± 217 µM |
| 0.7 ± 0.2 | 0.156 ± 0.0229 kcal/mol | 65±8% | 216 ± 65 µM | 208 ± 78 µM | 70±1% | 539 ± 86 µM | 240 ± 14 µM | 66 ± 9% | 66 ± 14% | 4,28 ± 0,20 mM | 4,10 ± 0,29 mM | 0,18 mM | 155 ± 79 µM | Oc1cc(O)c2c(c1)O[C@H](c1ccc(O)c(O)c1)[C@H](O)[C@H]2c1c(O)cc(O)c2c1O[C@H](c1ccc(O)c(O)c1)[C@@H](O)C2 [PC B1, procyanidin B1] | – | – | – | – | – | – |

| SMILES | α(Kic/Kiu) ([1]; 100 μM flavan-3-ol, 310 K) | ΔRHapp [1, 3] | vmax ([1]; 100 µM flavan-3-ol, inj. 2) | Ki [1, 4] | Ki [1, 5] | vmax ([1]; 100 µM flavan-3-ol, inj. 3) | Ki [1, 6] | Ki [1, 7] | vmax [1, 9] | (dQ/dt)max [1, 10] | conc. ([2]; 277 K) | conc. ([2]; room temperature (rt)) | difference rt and 277 K [2] | Ki [1, 12] | reduction in α-amylase activity ([1]; 100 μM PC C1) | (dQ/dt)max [1, 8] | ΔRHapp [1, 8] | vmax ([1]; PC C1 concentrations of ∼105 μM, 310 K, value printed in brackets) | IC50 [1] | Ki [1, 11] |
| --- | --- | --- | --- | --- | --- | --- | --- | --- | --- | --- | --- | --- | --- | --- | --- | --- | --- | --- | --- | --- |
| Oc1cc(O)c2c(c1)O[C@H](c1ccc(O)c(O)c1)[C@H](O)[C@H]2c1c(O)cc(O)c2c1O[C@H](c1ccc(O)c(O)c1)[C@H](O)[C@H]2c1c(O)cc(O)c2c1O[C@H](c1ccc(O)c(O)c1)[C@H](O)C2 [PC C1, procyanidin C1] | 0.9 ± 0.1 | 0.143 ± 0.00789 kcal/mol | 50±5% | 143 ± 56 µM | 102 ± 19 µM | 59±2% | 395 ± 78 µM | 145 ± 14 µM | 50 ± 4% | 44 ± 4% | 4,60 ± 0,42 mM | 4,29 ± 0,30 mM | 0,31 mM | – | 50% | 23 ± 0% | 0.0406 ± 0.01 kcal/mol | (98 ± 21) % | 103 ± 16 µM | 103 ± 16 µM |
| Oc1cc(O)c2c(c1)O[C@H](c1ccc(O)c(O)c1)[C@H](O)C2 [EC, (−)-Epicatechin] | 0.7 ± 0.1 | 0.195 ± 0.0127 kcal/mol | 77±5% | 305 ± 162 µM | 389 ± 41 µM | 76±3% | 291 ± 80 µM | 330 ± 52 µM | 78 ± 4% | 82 ± 8% | 3,99 ± 0,25 mM | 4,23 ± 0,24 mM | 0,24 mM | – | – | – | – | – | – | – |
